# From patent publication US6171866A, “Luminescence indicator for determining calcium ions” (AVL Medical Instruments, priority 1998, dated 2001)
# Test: Determination of the Kd values of ionophores from UV-absorption Ca^2+ titration curves
# Assay type: binding
# Details: aqueous solution, 30 mmol/l tris/HCl buffer, CO2-free, pH 7.4; absorption at 248 nm; 0.00001 to 0.5 mol/l Ca^2+; calculated from found pKd
# Procedure: wherein, at a given ionic strength and temperature, the dissociation constant (Kd) is given by Equation 2, [formula]
# The PKd value (Equation 3) is the negative common logarithm of the dissociation constant:
# The absorption values in dependence on the Ca^2+ concentration were measured using a commercial photometer, at an absorption wavelength of 248 nm. The resulting titration curves were normalized to the value Amax =1 at a Ca^2+ concentration of 0.00001 mol/l using Equation 4 (see below).
# The Kd values of the ionophores were determined from the measured absorption values of the Ca^2+ -titration curves according to Equation 3 (see above) and Equation 4 [formula]
# wherein Ax is the normalized absorption value at the given Ca^2+ concentration, Amax is the absorption value at 0.00001 mol/l Ca^2+ and pKd has the meaning indicated in Equation 3.
# They were determined from the found pKd values by means of Equation 3.
row,Structure (SMILES),Kd [µM]
1,"COc1ccccc1N(CCOCC(=O)O)CCOCC(=O)O [Ionophore X6, Potassium-o-anisidine-N,N-diethoxyacetate]",200
2,"COc1ccc(Cl)cc1N(CCOCC(=O)O)CCOCC(=O)O [Ionophore X8, Potassium 5-chloro-o-anisidine-N,N-diethoxyacetate]",720
3,"CCOc1ccccc1N(CCOCC(=O)O)CCOCC(=O)O [Ionophore X7, Potassium o-phenetidine-N,N-diethoxyacetate]",1090
4,"COc1ccccc1N(CCOc1ccccc1)CCN(CC(=O)O)CC(=O)O [Ionophore X5, Potassium N-[2-(N'-phenoxyethyl-N'-(2-methoxyphenyl)aminoethyl)]-imino-N,N-diacetate]",6960

# Now from value to compound:
row,Kd [µM],Structure (SMILES)
1,9140,"CCCCN(CCN(CC(=O)O)CC(=O)O)c1ccccc1OC [Ionophore X4, Potassium N-[2-(N'-butyl-N'-(2-methoxyphenyl)aminoethyl)]-imino-N,N-diacetate]"
2,6160,"COCCN(CCOC)c1ccccc1OCCN(CC(=O)O)CC(=O)O [Ionophore X9, Potassium N-[2-(N',N'-dimethoxyethyl)aminophenoxyethyl]imino-N,N-diacetate]"
3,330,"COCCN(CCN(CC(=O)O)CC(=O)O)c1ccccc1OC [Ionophore X2, Potassium N-[2-(N'-methoxyethyl-N'-(2-methoxyphenyl)aminoethyl)]-imino-N,N-diacetate]"
4,1040,"CCOCCN(CCN(CC(=O)O)CC(=O)O)c1ccccc1OC [Ionophore X3, Potassium N-[2-(N'-ethoxyethyl-N'-(2-methoxyphenyl)aminoethyl)]-imino-N,N-diacetate]"
